This passage reports % of control, dTM and % of inhibition results from ChEMBL document CHEMBL5465560, “Selectivity Literature for EUbOPEN Chemogenomic Library” (2024).

The structures appear in SMILES notation.

For experiment [1], the target named is T1, Rhodopsin kinase GRK7 (Homo sapiens) (UniProt Q8WTQ7).
T1 sequence (whole entry): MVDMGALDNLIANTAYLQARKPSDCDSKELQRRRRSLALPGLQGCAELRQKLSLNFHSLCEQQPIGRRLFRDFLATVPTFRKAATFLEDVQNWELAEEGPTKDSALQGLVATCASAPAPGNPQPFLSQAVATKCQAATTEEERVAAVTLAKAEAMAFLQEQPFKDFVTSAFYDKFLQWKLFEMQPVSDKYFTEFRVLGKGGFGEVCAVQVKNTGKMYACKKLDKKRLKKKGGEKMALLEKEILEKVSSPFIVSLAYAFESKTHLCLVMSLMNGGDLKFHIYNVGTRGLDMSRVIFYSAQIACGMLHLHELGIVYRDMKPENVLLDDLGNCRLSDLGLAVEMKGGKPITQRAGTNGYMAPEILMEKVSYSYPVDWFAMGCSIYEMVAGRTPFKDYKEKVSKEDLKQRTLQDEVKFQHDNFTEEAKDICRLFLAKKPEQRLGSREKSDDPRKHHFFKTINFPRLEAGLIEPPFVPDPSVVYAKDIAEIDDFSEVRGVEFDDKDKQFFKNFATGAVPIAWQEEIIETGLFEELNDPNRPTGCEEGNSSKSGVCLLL
Nature of the experiment: Selectivity interaction (ProQinase) EUB0000171b GRK7.

The target of experiment [2] is T2, MAP kinase-activated protein kinase 5 (Homo sapiens) (UniProt Q8IW41).
T2 sequence (whole entry): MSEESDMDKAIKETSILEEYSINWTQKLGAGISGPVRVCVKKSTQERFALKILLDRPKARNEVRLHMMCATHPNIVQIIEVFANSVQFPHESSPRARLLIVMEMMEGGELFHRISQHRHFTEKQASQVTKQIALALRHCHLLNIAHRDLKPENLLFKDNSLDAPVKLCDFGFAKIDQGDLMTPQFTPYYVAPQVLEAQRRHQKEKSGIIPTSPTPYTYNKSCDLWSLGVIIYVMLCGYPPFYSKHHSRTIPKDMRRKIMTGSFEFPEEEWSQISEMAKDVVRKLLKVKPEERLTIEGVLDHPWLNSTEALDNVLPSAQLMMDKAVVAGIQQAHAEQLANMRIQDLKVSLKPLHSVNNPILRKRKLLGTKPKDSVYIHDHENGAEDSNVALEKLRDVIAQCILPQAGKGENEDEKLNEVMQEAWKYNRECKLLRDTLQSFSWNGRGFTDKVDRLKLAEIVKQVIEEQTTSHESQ
Particulars: at 10 µM.

The target in experiment [3] is Tyrosine-protein kinase ABL1 (Homo sapiens, UniProt P00519). Put plainly: Selectivity interaction (Kinase panel (DSF assay)) EUB0001558a ABL1. In general terms: In DSF a fluorescence change marks the thermal transition of the protein.
For experiment [4], the target named is Vascular endothelial growth factor receptor 3 (Homo sapiens, UniProt P35916). Put plainly: Selectivity interaction (KinomeScan (DiscoverX)) EUB0001079a FLT4. The settings on record: at 1 µM.
Experiment [5] concerns the target Tyrosine-protein kinase ABL2 (Homo sapiens, UniProt P42684). Nature of the experiment: Selectivity interaction (Millipore kinase profiler) EUB0000124b ABL2. Particulars: at 10 µM.
Experiment [6] concerns the target Death-associated protein kinase 3 (Homo sapiens) (UniProt O43293). Nature of the experiment: Selectivity interaction (KinomeScan (DiscoverX)) EUB0001049a DAPK3. Particulars: at 1 µM.
In experiment [7] the target is Homeodomain-interacting protein kinase 3 (Homo sapiens, UniProt Q9H422). Put plainly: Selectivity interaction (KinomeScan (DiscoverX)) EUB0000655a HIPK3. The settings on record: at 10 µM.
Experiment [8] addresses Hepatocyte growth factor-like protein (Homo sapiens) (UniProt P26927). Put plainly: Selectivity interaction (KinomeScan (DiscoverX)) EUB0000655a MST1. The settings on record: at 10 µM.
Experiment [9] addresses Tyrosine-protein kinase BTK (Homo sapiens, UniProt Q06187). Nature of the experiment: Selectivity interaction (Kinase panel (Z-LYTE Assay)) EUB0001632a BTK. Particulars: at 10 µM.
In experiment [10] the target is Cyclin-dependent kinase 3 (Homo sapiens) (UniProt Q00526). Put plainly: Selectivity interaction (KinomeScan (DiscoverX)) EUB0000607a CDK3. The settings on record: at 10 µM.
In experiment [11] the target is Fibroblast growth factor receptor 4 (Homo sapiens, UniProt P22455). Nature of the experiment: Selectivity interaction (SelectScreen profiling (Invitrogen)) EUB0000607a FGFR4. Particulars: at 2 µM.
For experiment [12], the target named is Ribosomal protein S6 kinase alpha-3 (Homo sapiens, UniProt P51812). Nature of the experiment: Selectivity interaction (ActivX KiNativ screen (kinase selectivity in THP-1 cell lysates)) EUB0000639a RPS6KA3. The format is subcellular. Particulars: lysate, at 0.01 µM.
Experiment [13] deals with Serine/threonine-protein kinase MARK1 (Homo sapiens) (UniProt Q9P0L2). Put plainly: Selectivity interaction (ActivX KiNativ screen (kinase selectivity in THP-1 cell lysates)) EUB0000639a MARK1. The format is subcellular. Particulars: lysate.
Experiment [14] deals with Homeodomain-interacting protein kinase 1 (Homo sapiens, UniProt Q86Z02). Nature of the experiment: Selectivity interaction (KinomeScan (DiscoverX)) EUB0001619a HIPK1. The settings on record: at 1 µM.
Experiment [15] addresses T3, Serine/threonine-protein kinase TAO3 (Homo sapiens) (UniProt Q9H2K8).
T3 sequence (whole entry): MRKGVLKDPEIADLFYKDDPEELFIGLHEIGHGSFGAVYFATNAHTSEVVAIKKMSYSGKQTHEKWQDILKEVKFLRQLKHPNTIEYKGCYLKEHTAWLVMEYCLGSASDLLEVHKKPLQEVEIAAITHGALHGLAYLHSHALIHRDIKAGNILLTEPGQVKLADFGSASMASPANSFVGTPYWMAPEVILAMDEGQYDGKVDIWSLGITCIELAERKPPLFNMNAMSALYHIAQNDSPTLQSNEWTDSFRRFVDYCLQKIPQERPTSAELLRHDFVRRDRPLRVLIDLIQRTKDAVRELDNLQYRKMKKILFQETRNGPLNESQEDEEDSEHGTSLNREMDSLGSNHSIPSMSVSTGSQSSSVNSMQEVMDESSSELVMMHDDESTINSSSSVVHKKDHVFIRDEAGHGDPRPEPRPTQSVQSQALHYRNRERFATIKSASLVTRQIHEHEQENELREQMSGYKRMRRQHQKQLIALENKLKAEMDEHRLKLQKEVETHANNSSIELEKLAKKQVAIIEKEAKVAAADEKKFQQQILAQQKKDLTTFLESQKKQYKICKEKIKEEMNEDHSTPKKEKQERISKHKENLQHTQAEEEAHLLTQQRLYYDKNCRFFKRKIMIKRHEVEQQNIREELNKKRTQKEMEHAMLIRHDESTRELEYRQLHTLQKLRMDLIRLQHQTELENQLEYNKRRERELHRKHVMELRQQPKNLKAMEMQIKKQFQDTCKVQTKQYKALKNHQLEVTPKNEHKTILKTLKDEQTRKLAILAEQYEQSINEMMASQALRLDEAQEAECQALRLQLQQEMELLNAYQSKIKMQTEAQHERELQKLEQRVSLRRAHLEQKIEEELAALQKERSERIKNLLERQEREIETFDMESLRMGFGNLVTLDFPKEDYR
Nature of the experiment: Selectivity interaction (KinomeScan (DiscoverX)) EUB0000618a TAOK3. The settings on record: at 10 µM.

Sequence of Serine/threonine-protein kinase MARK1 (Homo sapiens) (Q9P0L2 whole entry, looked up): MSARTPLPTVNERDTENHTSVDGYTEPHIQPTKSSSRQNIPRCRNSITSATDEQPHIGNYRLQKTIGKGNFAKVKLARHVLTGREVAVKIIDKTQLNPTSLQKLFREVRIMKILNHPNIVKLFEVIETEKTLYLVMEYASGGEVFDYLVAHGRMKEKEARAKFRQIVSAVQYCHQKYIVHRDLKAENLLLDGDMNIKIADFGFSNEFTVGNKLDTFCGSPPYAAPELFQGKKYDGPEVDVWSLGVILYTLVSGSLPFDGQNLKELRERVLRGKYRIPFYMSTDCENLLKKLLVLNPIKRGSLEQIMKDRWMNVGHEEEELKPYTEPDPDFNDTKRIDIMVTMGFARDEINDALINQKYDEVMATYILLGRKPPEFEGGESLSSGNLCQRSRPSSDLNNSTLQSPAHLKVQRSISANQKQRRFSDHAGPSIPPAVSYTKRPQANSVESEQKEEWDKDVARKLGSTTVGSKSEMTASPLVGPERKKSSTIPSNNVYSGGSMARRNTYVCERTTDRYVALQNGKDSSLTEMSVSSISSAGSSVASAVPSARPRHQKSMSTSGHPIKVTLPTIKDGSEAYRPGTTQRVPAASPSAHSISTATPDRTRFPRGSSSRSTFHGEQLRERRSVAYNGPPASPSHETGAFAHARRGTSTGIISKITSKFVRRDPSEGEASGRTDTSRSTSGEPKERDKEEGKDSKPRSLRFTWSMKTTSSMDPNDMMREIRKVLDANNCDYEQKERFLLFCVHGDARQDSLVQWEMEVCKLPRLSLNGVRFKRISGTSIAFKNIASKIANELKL
Sequence of Cyclin-dependent kinase 3 (Homo sapiens) (Q00526 whole entry, looked up): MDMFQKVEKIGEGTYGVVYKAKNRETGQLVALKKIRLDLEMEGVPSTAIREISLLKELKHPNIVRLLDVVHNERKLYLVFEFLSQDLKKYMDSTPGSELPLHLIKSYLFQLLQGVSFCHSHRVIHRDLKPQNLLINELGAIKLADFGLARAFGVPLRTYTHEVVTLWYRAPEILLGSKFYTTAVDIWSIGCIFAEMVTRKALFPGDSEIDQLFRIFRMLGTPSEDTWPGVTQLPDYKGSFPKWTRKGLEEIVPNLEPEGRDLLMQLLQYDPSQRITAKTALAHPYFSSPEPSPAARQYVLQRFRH
Sequence of Tyrosine-protein kinase ABL2 (P42684 whole entry): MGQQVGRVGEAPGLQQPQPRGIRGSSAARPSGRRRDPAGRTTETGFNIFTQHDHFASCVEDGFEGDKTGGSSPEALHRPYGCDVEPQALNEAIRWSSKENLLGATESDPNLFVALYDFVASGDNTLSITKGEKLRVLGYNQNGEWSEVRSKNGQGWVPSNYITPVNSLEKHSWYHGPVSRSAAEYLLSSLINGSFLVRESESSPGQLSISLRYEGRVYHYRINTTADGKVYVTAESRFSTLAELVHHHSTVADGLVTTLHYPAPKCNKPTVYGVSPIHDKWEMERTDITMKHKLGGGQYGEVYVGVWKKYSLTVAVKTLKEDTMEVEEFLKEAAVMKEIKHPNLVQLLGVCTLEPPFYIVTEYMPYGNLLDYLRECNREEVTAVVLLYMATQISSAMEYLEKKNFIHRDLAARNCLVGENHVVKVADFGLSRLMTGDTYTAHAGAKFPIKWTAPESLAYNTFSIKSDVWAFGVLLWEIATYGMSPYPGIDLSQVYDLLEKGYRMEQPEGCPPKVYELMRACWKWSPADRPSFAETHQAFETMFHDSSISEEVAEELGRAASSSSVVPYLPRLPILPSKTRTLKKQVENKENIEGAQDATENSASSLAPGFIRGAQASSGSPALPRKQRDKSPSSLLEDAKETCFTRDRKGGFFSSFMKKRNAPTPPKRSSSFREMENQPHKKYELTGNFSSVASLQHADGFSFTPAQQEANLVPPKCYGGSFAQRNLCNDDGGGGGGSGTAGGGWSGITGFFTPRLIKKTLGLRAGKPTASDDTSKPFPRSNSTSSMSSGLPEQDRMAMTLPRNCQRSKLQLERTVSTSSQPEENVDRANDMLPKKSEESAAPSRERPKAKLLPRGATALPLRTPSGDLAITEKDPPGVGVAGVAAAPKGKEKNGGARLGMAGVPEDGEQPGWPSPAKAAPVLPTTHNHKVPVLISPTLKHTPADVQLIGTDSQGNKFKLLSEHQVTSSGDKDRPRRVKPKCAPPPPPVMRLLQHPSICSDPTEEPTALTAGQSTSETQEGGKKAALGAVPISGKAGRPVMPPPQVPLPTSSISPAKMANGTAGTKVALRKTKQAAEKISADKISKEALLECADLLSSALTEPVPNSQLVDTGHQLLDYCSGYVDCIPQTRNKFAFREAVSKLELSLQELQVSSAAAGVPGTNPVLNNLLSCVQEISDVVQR
Sequence of Tyrosine-protein kinase BTK (Q06187 whole entry): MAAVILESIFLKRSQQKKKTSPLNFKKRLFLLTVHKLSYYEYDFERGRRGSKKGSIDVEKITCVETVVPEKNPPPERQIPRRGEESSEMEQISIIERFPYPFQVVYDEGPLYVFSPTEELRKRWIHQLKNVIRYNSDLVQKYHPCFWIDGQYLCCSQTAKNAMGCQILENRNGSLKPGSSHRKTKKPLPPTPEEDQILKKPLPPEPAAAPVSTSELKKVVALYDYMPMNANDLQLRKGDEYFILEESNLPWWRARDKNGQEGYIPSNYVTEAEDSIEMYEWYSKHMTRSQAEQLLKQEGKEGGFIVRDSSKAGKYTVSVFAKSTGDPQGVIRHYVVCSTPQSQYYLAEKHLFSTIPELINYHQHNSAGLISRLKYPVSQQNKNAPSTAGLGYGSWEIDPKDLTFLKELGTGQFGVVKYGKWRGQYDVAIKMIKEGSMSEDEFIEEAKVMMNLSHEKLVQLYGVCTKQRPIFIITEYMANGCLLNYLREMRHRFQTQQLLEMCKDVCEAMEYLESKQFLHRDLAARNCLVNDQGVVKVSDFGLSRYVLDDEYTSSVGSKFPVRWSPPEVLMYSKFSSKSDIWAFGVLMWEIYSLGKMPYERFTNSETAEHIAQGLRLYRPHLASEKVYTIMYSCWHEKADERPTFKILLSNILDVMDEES
Sequence of Ribosomal protein S6 kinase alpha-3 (P51812 whole entry): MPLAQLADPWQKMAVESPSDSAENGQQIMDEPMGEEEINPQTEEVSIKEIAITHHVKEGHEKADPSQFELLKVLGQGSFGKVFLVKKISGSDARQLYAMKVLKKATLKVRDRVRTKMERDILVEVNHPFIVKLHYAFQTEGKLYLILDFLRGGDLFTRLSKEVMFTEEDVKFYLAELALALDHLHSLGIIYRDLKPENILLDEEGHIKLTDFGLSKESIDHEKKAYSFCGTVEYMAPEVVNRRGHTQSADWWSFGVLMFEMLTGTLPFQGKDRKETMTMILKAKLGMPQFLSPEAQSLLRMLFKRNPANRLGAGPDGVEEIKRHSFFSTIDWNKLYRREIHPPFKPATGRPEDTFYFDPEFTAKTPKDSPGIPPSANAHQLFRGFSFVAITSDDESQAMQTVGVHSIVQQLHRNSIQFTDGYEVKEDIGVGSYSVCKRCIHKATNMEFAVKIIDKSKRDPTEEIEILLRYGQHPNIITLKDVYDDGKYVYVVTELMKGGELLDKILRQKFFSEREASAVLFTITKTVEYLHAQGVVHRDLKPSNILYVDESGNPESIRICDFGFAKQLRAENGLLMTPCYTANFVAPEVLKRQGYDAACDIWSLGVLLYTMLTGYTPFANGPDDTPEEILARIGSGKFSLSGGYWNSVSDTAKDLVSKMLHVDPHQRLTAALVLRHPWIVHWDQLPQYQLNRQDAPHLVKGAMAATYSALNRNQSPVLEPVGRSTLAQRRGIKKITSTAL
Sequence of Death-associated protein kinase 3 (Homo sapiens) (O43293 whole entry, looked up): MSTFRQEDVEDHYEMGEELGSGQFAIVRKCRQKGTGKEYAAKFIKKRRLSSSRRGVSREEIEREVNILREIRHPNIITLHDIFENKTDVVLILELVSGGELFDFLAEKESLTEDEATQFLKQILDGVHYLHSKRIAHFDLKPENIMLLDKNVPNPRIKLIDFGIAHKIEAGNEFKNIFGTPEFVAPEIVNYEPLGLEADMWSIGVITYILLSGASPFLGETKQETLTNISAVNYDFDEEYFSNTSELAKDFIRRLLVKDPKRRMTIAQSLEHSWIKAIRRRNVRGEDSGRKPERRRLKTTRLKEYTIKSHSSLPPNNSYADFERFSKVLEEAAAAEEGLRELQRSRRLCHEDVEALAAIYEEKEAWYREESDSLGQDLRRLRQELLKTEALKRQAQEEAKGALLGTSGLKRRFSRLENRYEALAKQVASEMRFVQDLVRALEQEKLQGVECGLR
Sequence of Fibroblast growth factor receptor 4 (P22455 22-802 limits assumed): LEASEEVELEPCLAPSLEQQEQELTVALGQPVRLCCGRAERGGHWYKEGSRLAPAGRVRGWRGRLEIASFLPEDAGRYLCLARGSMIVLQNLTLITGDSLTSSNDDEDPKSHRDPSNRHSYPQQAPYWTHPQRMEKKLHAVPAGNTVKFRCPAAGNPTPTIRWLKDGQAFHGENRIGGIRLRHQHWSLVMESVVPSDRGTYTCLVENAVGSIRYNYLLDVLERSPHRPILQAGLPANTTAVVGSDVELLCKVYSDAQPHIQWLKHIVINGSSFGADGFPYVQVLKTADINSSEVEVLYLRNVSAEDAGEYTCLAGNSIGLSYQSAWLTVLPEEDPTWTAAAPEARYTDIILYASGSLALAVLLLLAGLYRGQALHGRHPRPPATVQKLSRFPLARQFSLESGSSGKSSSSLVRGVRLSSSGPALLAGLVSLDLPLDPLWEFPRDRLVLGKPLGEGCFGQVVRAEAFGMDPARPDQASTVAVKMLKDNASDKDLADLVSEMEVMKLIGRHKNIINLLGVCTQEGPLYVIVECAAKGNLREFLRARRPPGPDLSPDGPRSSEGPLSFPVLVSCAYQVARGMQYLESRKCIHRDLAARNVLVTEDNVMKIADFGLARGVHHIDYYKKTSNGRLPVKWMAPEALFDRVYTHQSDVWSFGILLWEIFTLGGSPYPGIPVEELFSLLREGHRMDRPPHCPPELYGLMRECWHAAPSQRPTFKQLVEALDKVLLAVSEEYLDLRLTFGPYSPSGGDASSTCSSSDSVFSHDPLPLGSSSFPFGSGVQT

On to `C=CC(=O)Nc1cccc(C(=O)Nc2ccc(Nc3cc(-c4[nH]c(SC)nc4C)ccn3)cc2)c1`, for which the % of control in experiment [1] (at 1 µM) stood at 100%; in experiment [1] (at 5 µM) it was 99%.

On to `Cc1cc([C@@H](C)Nc2ccccc2C(=O)O)c2nc(N3CCOCC3)cc(=O)n2c1` [AZD-6482], for which the % of control in experiment [2] was found to be 100%.

`CC(C)(O)[C@H](F)CN1Cc2cc(NC(=O)c3cnn4cccnc34)c(N3CCOCC3)cc2C1=O`: the dTM in experiment [3] worked out at 1.7 K.

For the compound `Nc1cnc(N2CCc3cc(S(=O)(=O)Nc4c(F)cc(Cl)cc4F)cc(N4CCCC4=O)c32)nc1` [TP-020n], in [4], the % of control turned out to be 86%.

As for `CC(=O)Nc1cccc(-n2c(=O)n(C3CC3)c(=O)c3c(Nc4ccc(I)cc4F)n(C)c(=O)c(C)c32)c1`, the % of control in experiment [5] worked out at 111%.

Take `COc1cc(Nc2nc(C)cc(-c3cnn4nc(OC)ccc34)n2)cc(C(F)(F)F)c1`: the % of control in experiment [6] came to 100%.

Turning to `CN(C)CCOc1ccc(-c2nc(-c3ccncc3)c(-c3ccc4c(c3)CC/C4=N\O)[nH]2)cc1`, the % of control in [7] came to 62%; in [8], 100%.

On to `Cn1cc(-n2cnc3c(NCc4nc5cc(Cl)c(Cl)cc5[nH]4)nc(N4CCOCC4)nc32)cn1`, for which the % of control in [9] was -7.51%.

With `CNC(=O)Nc1ccc(-c2nc(N3CC4CCC(C3)O4)c3cnn(C4CCC5(CC4)OCCO5)c3n2)cc1`, in experiment [10], the % of control was 99%. Also, in experiment [11], the % of inhibition was determined as 4%.

With `CC[C@@H]1[C@H](F)C(=O)N[C@@H]1COc1nccc2cc(C(N)=O)c(OC)cc12` [ZIMLOVISERTIB], the % of inhibition in experiment [12] is -9.7%; in experiment [13] (at 0.01 µM), -5.4%; in [13] (at 0.04 µM), 8.3%; in [13] (at 0.2 µM), 8.4%; in [13] (at 1 µM), 26.6%; in [13] (at 5 µM), 51.5%.

`N#Cc1cccc(-c2c[nH]c3ncnc(N4CCOCC4)c23)c1`: in experiment [14], the % of control amounted to 77%.

On to `O[C@H]1CC[C@H](Nc2ncc3nc(Nc4c(F)cc(F)cc4F)n([C@H]4CCOC4)c3n2)CC1`, for which the % of control in experiment [15] was determined as 81%.
